Marks after values point to notes of the source that are not given here.
Legend:
[1] = tested on: saponin-induced vascular hyperplasia; experiment: Saponin-induced vascular hyperplasia model (carotid artery endothelial denudation); assay type: in vivo, rat; details: for effect on saponin-induced smooth muscle cell hyperplasia (histology, in words): rat carotid artery 14 days after saponin denudation, 35 mg/kg/day days 1 to 14 by miniosmotic pump, 35 mg/kg/day
Experimental: In order to induce vascular hyperplasia two procedures were used. In the first procedure, male Fisher 344 rats (18→30 weeks of age) were anaesthetised and approximately a 1 cm length of one of the carotid arteries exteriorised by dissection. The 1 cm arterial segment was clamped at both ends with padded artery clamps. A small volume of saponin solution (0.5 mg/ml in PBS) was injected, via a 30 gauge needle, into the arterial segment, left for 2 min and then withdrawn by suction. The 1 cm arterial section was ligated (5/0 silk) on each side of the needle hole and the arterial clamps removed, the artery reinteriorised and the wound sutured. On the following day animals were divided into control and treatment groups. The treatment group received the sulfated oligosaccharide, sulfated mannopentaose phosphate (PI-88) at a dose of 35 mg/kg/day for the next 14 days delivered via subcutaneously implanted miniosmotic pumps (Alzet 2ML2). Control animals were given the miniosmotic pumps containing saline. After 2 weeks the animals were anaesthetised (pentobarbitone), perfused with 10% buffered formalin for 20 minutes, euthanised (Pentobarbitone) and the denuded arterial segments were removed and processed for histological examination. The degree of intimal hyperplasia was determined using digital image analysis.
The saponin-induced vascular hyperplasia model used in this study is a new procedure which has several important features which should be highlighted. First, brief exposure to the detergent saponin is used to denude the arterial wall of endothelial cells. Such a procedure is similar to the endothelial denudation resulting from balloon angioplasty. Second, massive vascular smooth muscle hyperplasia is observed in the saponin-treated carotid artery 14 days after saponin exposure (FIG. 1) when compared with the carotid artery from an untreated control animal (FIG. 2). In fact, almost complete occlusion of the blood vessel is observed in the saponin-treated vessel (FIG. 1). Third, based on control experiments, the saponin-induced vascular hyperplasia model represents an excellent system for screening of drugs which inhibit vascular hyperplasia, a process which occurs in atherosclerotic plaques and in angioplasty-associated restenosis.

[2] = tested on: vascular intimal hyperplasia; experiment: Balloon dilation model of vascular intimal hyperplasia (carotid artery); assay type: in vivo, rat
Text: In the second procedure, a traditional balloon dilation model, based essentially on the method described by Clowes et al.^8 was used. Thirteen male Wistar rats (16-20 weeks of age) were anaesthetised (avertin) and the left common carotid artery exteriorised via a ventral midline incision. A padded vascular clamp was applied to the most caudal end of the exteriorised artery. Following arteriotomy a 2 F Fogarty balloon catheter was inserted into the carotid artery, the vascular clamp removed and the catheter advanced 1-1.5 cm in a caudal direction. The balloon was inflated using a 0.12 cc of air and the catheter was withdrawn to the point of arterial insertion. The balloon was then deflated and this procedure was repeated twice more. On the third withdrawal the balloon was deflated, the catheter removed from the artery and simultaneously a padded vascular clamp applied immediately caudal to the arteriotomy but leaving room for the subsequent application of a ligature (5/0 silk). […]
In the second procedure employing the balloon dilation model, the degree of vascular intimal hyperplasia was calculated as a percentage of the total area of the vessel cross-section. Specifically, the percentage of hyperplasia was determined to be the area of the tunica intima divided by the cross-sectional area of the artery.

With “sulfated mannopentaose phosphate [PI-88]” the “Arterial Wall Thickness” value ([1]; male Fisher 344 rats, saponin denudation of carotid artery, 35 mg/kg/day for 14 days via subcutaneous miniosmotic pump, mean ± SEM, P = 0.08 vs control) was 266.7 ± 27.7^b μm, the “Arterial Wall Thickness % Control” value ([1]; male Fisher 344 rats, saponin denudation, 35 mg/kg/day for 14 days via miniosmotic pump, saline control = 100, mean ± SEM, P = 0.08) was 66.4 ± 6.9^b % and the “effect on saponin-induced smooth muscle cell hyperplasia (histology, in words)” value [1] was “reduction in the saponin-induced vascular hyperplasia”. For the same substance, the “effect on saponin-induced smooth muscle cell hyperplasia (histology, in words)” value ([1]; listed as sulfated mannopentaose phosphate) was “substantial reduction in smooth muscle cell hyperplasia”, the “inhibition of vascular hyperplasia compared with untreated control animals” value ([1]; saponin model, 35 mg/kg/day via miniosmotic pumps, histological examination of carotid arteries, P=0.08) was 34% and the “effect on vascular intimal hyperplasia (in words)” value ([2]; balloon dilation model, 35 mg/kg/day via miniosmotic pumps) was “statistically significant (P=0.0008) reduction in vascular intimal hyperplasia”. The Percentage of neointima ([2]; male Wistar rats, balloon catheter dilation of left common carotid artery, 35 mg/kg/day for two weeks via subcutaneous miniosmotic pump, area of tunica intima divided by cross-sectional area of artery, saline control 57.66) was 36.02^a %.

— patent publication US6638916B1, “Use of sulfated oligosaccharides as inhibitors of cardiovascular disease” (The Australian National University, priority 1997, dated 2003)
